What was measured:
[1] = tested on: Zika virus; assay: Antiviral activity against Zika virus PE243 infected in African green monkey Vero E6 cells assessed as inhibition of viral replication incubated for 72 hrs by immunofluorescence analysis; type: functional, organism-based; conditions: PE243, Vero C1008, 72 h
[2] = Cytotoxicity against African green monkey Vero E6 cells assessed as cell viability at 2 uM measured after 72 hrs by MTT assay relative to control; type: toxicity, cell-based, Vero C1008; conditions: chlorocebus sabaeus, read-out: Activity
[3] = tested on: BHK-21; assay: Cytotoxicity against golden hamster BHK21-RepZIKV_IRES-Neo cells assessed as reduction in cell viability measured after 72 hrs by MTT assay; type: toxicity, cell-based, Mesocricetus auratus; conditions: bhk-21, 72 h
[4] = tested on: Zika virus; assay: Antiviral activity against Zika virus PE243 infected in African green monkey Vero E6 cells assessed as inhibition of viral replication at 10 uM incubated for 72 hrs by immunofluorescence analysis; type: functional; conditions: PE243, Vero C1008
[5] = tested on: Zika virus; assay: (§1) Inhibition of Zika virus BeH823339 NS2B protease (49 to 95 residues) R96A mutant/NS3 protease (1 to 170 residues) R29G/ C80S/C143S mutant expressed in Escherichia coli BL21 (DE3) cells using Bz-Nle-Lys-Lys-Arg-AMC as a fluorogenic substrate at 100 uM preincubated with enzyme for 10 mins by fluorescence-based analysis relative to control
[6] = tested on: Zika virus; assay: Antiviral activity against Zika virus PE243 infected in African green monkey Vero E6 cells assessed as inhibition of viral replication at 2 uM incubated for 72 hrs by immunofluorescence analysis; type: functional; conditions: PE243, Vero C1008
[7] = Selectivity index, ratio of CC50 for cytotoxicity against African green monkey Vero E6 cells to EC50 for antiviral activity against Zika virus PE243 infected in African green monkey Vero E6 cells; type: toxicity, cell-based, Vero C1008; conditions: read-out: Ratio CC50/EC50
[8] = Cytotoxicity against African green monkey Vero E6 cells assessed as cell viability at 10 uM measured after 72 hrs by MTT assay relative to control; type: toxicity, cell-based, Vero C1008; conditions: chlorocebus sabaeus, read-out: Activity
[9] = tested on: Zika virus; assay: as §1, with “uM” for “uM preincubated with enzyme for 10 mins”
[10] = Cytotoxicity against African green monkey Vero E6 cells assessed as reduction in cell viability measured after 72 hrs by MTT assay; type: toxicity, cell-based, Vero C1008; conditions: chlorocebus sabaeus
[11] = tested on: Zika virus; assay: Antiviral activity against Zika virus infected in golden hamster BHK21-RepZIKV_IRES-Neo cells assessed as inhibition of viral replication by measuring reduction in renilla luciferase expression at 10 uM measured after 72 hrs by luciferase reporter gene assay relative to control; type: functional, Mesocricetus auratus; conditions: BHK-21
[12] = target: Nonstructural protein 3 (Zika virus, UniProt A0A024AXB9); assay: Inhibition of N-terminal His-tagged Zika virus NS2B protease (46 to 99 residues)/NS3 protease (1 to 187 residues) expressed in Escherichia coli Rosetta2(DE3) cells using Boc-Gly-Arg-Arg-AMC as substrate preincubated with enzyme for 10 mins followed by substrate addition and measured for 10 mins by fluorescence based analysis
Nonstructural protein 3, sequence (A0A024AXB9 whole entry, the tested form may be a part): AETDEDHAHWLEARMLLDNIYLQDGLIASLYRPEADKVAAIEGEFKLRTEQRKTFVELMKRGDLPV

COc1ccc(S(=O)(=O)Nc2ccc(C(=O)Nc3nc4ccccc4s3)cc2)cc1
EC50 [1]: 11.1 µM | viability at 72 h, 2 µM [2]: 88.7% | Activity [3]: Non-Toxic | inhibition at 10 µM [4]: 74.4% | inhibition [5]: 32% | inhibition at 2 µM [6]: 10.8% | selectivity ratio [7]: 1.2 | viability at 72 h, 10 µM [8]: 94.8% | inhibition [9]: 38% | CC50 at 72 h [10]: 13.3 µM | inhibition at 10 µM [11]: 63.4% | IC50 [12]: 5.2 µM
